According to ChEMBL document CHEMBL4219237, “Design, synthesis, evaluation, and molecular docking of ursolic acid derivatives containing a nitrogen heterocycle as anti-inflammatory agents” (Bioorg Med Chem Lett, 2018):
pIC50: −log10 of the molar value.

Assays:
[1] = tested on: Mus musculus; experiment: Antiinflammatory activity in mouse assessed as inhibition of para-xylene-induced ear edema at 100 mg/kg, ip administered 30 mins prior to para-xylene challenge measured after 30 mins relative to control; type: functional
[2] = tested on: HCT-116; experiment: Cytotoxicity against human HCT116 cells assessed as growth inhibition after 24 hrs by MTT assay; type: cell-based; conditions: HCT-116, 24 h
[3] = tested on: Mus musculus; experiment: Potency index, ratio of test compound to ibuprofen activity in mouse assessed as inhibition of para-xylene-induced ear edema at 100 mg/kg, ip; type: functional
[4] = tested on: Mus musculus; experiment: Antiinflammatory activity in mouse assessed as inhibition of para-xylene-induced ear edema at 100 mg/kg, po measured at 1 hr relative to control; type: functional
[5] = tested on: Mus musculus; experiment: Antiinflammatory activity in mouse assessed as inhibition of para-xylene-induced ear edema at 100 mg/kg, po measured at 2 hrs relative to control; type: functional
[6] = tested on: Mus musculus; experiment: Antiinflammatory activity in mouse assessed as inhibition of para-xylene-induced ear edema at 100 mg/kg, po measured at 3 hrs relative to control; type: functional
[7] = tested on: Mus musculus; experiment: Antiinflammatory activity in mouse assessed as inhibition of para-xylene-induced ear edema at 100 mg/kg, po measured at 4 hrs relative to control; type: functional
[8] = tested on: Mus musculus; experiment: Antiinflammatory activity in mouse assessed as inhibition of para-xylene-induced ear edema at 100 mg/kg, po measured at 5 hrs relative to control; type: functional
[9] = tested on: Mus musculus; experiment: Antiinflammatory activity in mouse assessed as inhibition of para-xylene-induced ear edema at 125 mg/kg, po measured at 2 hrs relative to control; type: functional
[10] = tested on: Mus musculus; experiment: Antiinflammatory activity in mouse assessed as inhibition of para-xylene-induced ear edema at 50 mg/kg, po measured at 2 hrs relative to control; type: functional
[11] = tested on: Mus musculus; experiment: Antiinflammatory activity in mouse assessed as inhibition of para-xylene-induced ear edema at 25 mg/kg, po measured at 2 hrs relative to control; type: functional
[12] = tested on: AGS; experiment: Cytotoxicity against human AGS cells assessed as growth inhibition after 24 hrs by MTT assay; type: cell-based
[13] = tested on: L02; experiment: Cytotoxicity against human L02 cells assessed as growth inhibition after 24 hrs by MTT assay; type: cell-based; conditions: L02, 24 h

| SMILES | inhibition in vivo at 100 mg/kg [1] | pIC50 [2] | further results |
| --- | --- | --- | --- |
| Cc1ccccc1-c1nnc(COC(=O)[C@]23CC[C@@H](C)[C@H](C)[C@H]2C2=CC[C@@H]4[C@@]5(C)CC[C@H](O)C(C)(C)[C@@H]5CC[C@@]4(C)[C@]2(C)CC3)o1 | 57.2% | < 4.00 | – |
| C[C@H]1[C@H](C)CC[C@]2(C(=O)OCCCCCn3ncn(-c4ccccc4)c3=O)CC[C@]3(C)C(=CC[C@@H]4[C@@]5(C)CC[C@H](O)C(C)(C)[C@@H]5CC[C@]43C)[C@H]12 | 56.7% | < 4.00 | Ratio [3]: 2 |
| C[C@H]1[C@H](C)CC[C@]2(C(=O)OCCN3CCN(Cc4nnc(-c5ccccc5)o4)CC3)CC[C@]3(C)C(=CC[C@@H]4[C@@]5(C)CC[C@H](O)C(C)(C)[C@@H]5CC[C@]43C)[C@H]12 | 59.1% | < 4.00 | – |
| Cc1cccc(-c2nnc(COC(=O)[C@]34CC[C@@H](C)[C@H](C)[C@H]3C3=CC[C@@H]5[C@@]6(C)CC[C@H](O)C(C)(C)[C@@H]6CC[C@@]5(C)[C@]3(C)CC4)o2)c1 | – | < 4.00 | – |
| C[C@H]1[C@H](C)CC[C@]2(C(=O)OCCn3ncn(-c4ccccc4)c3=O)CC[C@]3(C)C(=CC[C@@H]4[C@@]5(C)CC[C@H](O)C(C)(C)[C@@H]5CC[C@]43C)[C@H]12 | 64.2% | < 4.00 | – |
| C[C@H]1[C@H](C)CC[C@]2(C(=O)OCc3nnc(-c4cccc(Br)c4)o3)CC[C@]3(C)C(=CC[C@@H]4[C@@]5(C)CC[C@H](O)C(C)(C)[C@@H]5CC[C@]43C)[C@H]12 | 53.7% | < 4.00 | – |
| C[C@H]1[C@H](C)CC[C@]2(C(=O)OCCN3CCN(Cc4nnc(-c5cccc(Br)c5)o4)CC3)CC[C@]3(C)C(=CC[C@@H]4[C@@]5(C)CC[C@H](O)C(C)(C)[C@@H]5CC[C@]43C)[C@H]12 | 61% | < 4.00 | – |
| C[C@H]1[C@H](C)CC[C@]2(C(=O)OCc3nnc(-c4ccc(Br)cc4)o3)CC[C@]3(C)C(=CC[C@@H]4[C@@]5(C)CC[C@H](O)C(C)(C)[C@@H]5CC[C@]43C)[C@H]12 | 68.9% | < 4.00 | – |
| C[C@H]1[C@H](C)CC[C@]2(C(=O)OCc3nnc(-c4cccc(Cl)c4)o3)CC[C@]3(C)C(=CC[C@@H]4[C@@]5(C)CC[C@H](O)C(C)(C)[C@@H]5CC[C@]43C)[C@H]12 | 65.4% | < 4.00 | – |
| C[C@H]1[C@H](C)CC[C@]2(C(=O)O)CC[C@]3(C)C(=CC[C@@H]4[C@@]5(C)CC[C@H](O)C(C)(C)[C@@H]5CC[C@]43C)[C@H]12 [URSOLIC ACID] | 57.7% | – | – |
| C[C@H]1[C@H](C)CC[C@]2(C(=O)OCCCCn3ncn(-c4ccccc4)c3=O)CC[C@]3(C)C(=CC[C@@H]4[C@@]5(C)CC[C@H](O)C(C)(C)[C@@H]5CC[C@]43C)[C@H]12 | 66.1% | < 4.00 | Ratio [3]: 2 |
| C[C@H]1[C@H](C)CC[C@]2(C(=O)OCCCN3CCN(Cc4nnc(-c5cccc(Br)c5)o4)CC3)CC[C@]3(C)C(=CC[C@@H]4[C@@]5(C)CC[C@H](O)C(C)(C)[C@@H]5CC[C@]43C)[C@H]12 | 66.5% | < 4.00 | – |
| CC(C)Cc1ccc(C(C)C(=O)O)cc1 (configuration not stated) [IBUPROFEN] | 25.2% | – | – |
| C[C@H]1[C@H](C)CC[C@]2(C(=O)OCc3nnc(-c4ccccc4Cl)o3)CC[C@]3(C)C(=CC[C@@H]4[C@@]5(C)CC[C@H](O)C(C)(C)[C@@H]5CC[C@]43C)[C@H]12 | 38.8% | < 4.00 | – |
| C[C@H]1[C@H](C)CC[C@]2(C(=O)OCc3nnc(-c4ccc(Cl)cc4)o3)CC[C@]3(C)C(=CC[C@@H]4[C@@]5(C)CC[C@H](O)C(C)(C)[C@@H]5CC[C@]43C)[C@H]12 | – | < 4.00 | – |
| C[C@H]1[C@H](C)CC[C@]2(C(=O)OCCCN3CCN(Cc4nnc(-c5ccc(F)cc5)o4)CC3)CC[C@]3(C)C(=CC[C@@H]4[C@@]5(C)CC[C@H](O)C(C)(C)[C@@H]5CC[C@]43C)[C@H]12 | 58.7% | < 4.00 | – |
| C[C@H]1[C@H](C)CC[C@]2(C(=O)OCCCn3ncn(-c4ccccc4)c3=O)CC[C@]3(C)C(=CC[C@@H]4[C@@]5(C)CC[C@H](O)C(C)(C)[C@@H]5CC[C@]43C)[C@H]12 | 69.8% | < 4.00 | Ratio [3]: 2; inhibition in vivo at 100 mg/kg [4]: 22.6%; inhibition in vivo at 100 mg/kg [5]: 41.2 to 47.9%; inhibition in vivo at 100 mg/kg [6]: 29.7%; inhibition in vivo at 100 mg/kg [7]: 20.2%; inhibition in vivo at 100 mg/kg [8]: 16.4%; inhibition in vivo at 125 mg/kg [9]: 50.1%; inhibition in vivo at 50 mg/kg [10]: 35.2%; inhibition in vivo at 25 mg/kg [11]: 19.7%; pIC50 [12]: < 3.70; pIC50 [13]: < 3.70 |
| C[C@H]1[C@H](C)CC[C@]2(C(=O)OCCCN3CCN(Cc4nnc(-c5ccccc5)o4)CC3)CC[C@]3(C)C(=CC[C@@H]4[C@@]5(C)CC[C@H](O)C(C)(C)[C@@H]5CC[C@]43C)[C@H]12 | 47.8% | < 4.00 | – |
| C[C@H]1[C@H](C)CC[C@]2(C(=O)OCc3nnc(-c4ccccc4)o3)CC[C@]3(C)C(=CC[C@@H]4[C@@]5(C)CC[C@H](O)C(C)(C)[C@@H]5CC[C@]43C)[C@H]12 | 62.3% | < 4.00 | – |
| C[C@H]1[C@H](C)CC[C@]2(C(=O)OCc3nnc(-c4ccccc4Br)o3)CC[C@]3(C)C(=CC[C@@H]4[C@@]5(C)CC[C@H](O)C(C)(C)[C@@H]5CC[C@]43C)[C@H]12 | 55.3% | < 4.00 | – |
| COc1ccc2c(c1)c(CC(=O)O)c(C)n2C(=O)c1ccc(Cl)cc1 [INDOMETHACIN] | 26.8% | – | inhibition in vivo at 100 mg/kg [4]: 12%; inhibition in vivo at 100 mg/kg [5]: 30.9 to 33.3%; inhibition in vivo at 100 mg/kg [6]: 18.6%; inhibition in vivo at 100 mg/kg [7]: 15.6%; inhibition in vivo at 100 mg/kg [8]: 10.3%; inhibition in vivo at 125 mg/kg [9]: 38.7%; inhibition in vivo at 50 mg/kg [10]: 22.8%; inhibition in vivo at 25 mg/kg [11]: 4.85% |
| Cc1ccc(-c2nnc(COC(=O)[C@]34CC[C@@H](C)[C@H](C)[C@H]3C3=CC[C@@H]5[C@@]6(C)CC[C@H](O)C(C)(C)[C@@H]6CC[C@@]5(C)[C@]3(C)CC4)o2)cc1 | 58.2% | < 4.00 | – |
| C[C@H]1[C@H](C)CC[C@]2(C(=O)OCCCN3CCN(Cc4nnc(-c5ccccc5Cl)o4)CC3)CC[C@]3(C)C(=CC[C@@H]4[C@@]5(C)CC[C@H](O)C(C)(C)[C@@H]5CC[C@]43C)[C@H]12 | 32% | < 4.00 | – |
